Source: ChEMBL document CHEMBL1134030, “Synthesis and structure-activity relationships of guanine analogues as phosphodiesterase 7 (PDE7) inhibitors” (Bioorg Med Chem Lett, 2001)
The source made the active and inactive calls.

Tests used:
[1] = biological target: T1, Phosphodiesterase 4 (Homo sapiens) (UniProt P27815+Q08499+Q07343+Q08493); assay: Inhibition of guinea pig Phosphodiesterase 4 at 10 uM; assay type: protein assay; details: Cavia porcellus, target entry is the homologue from another species
Phosphodiesterase 7 [2] = biological target: T2, Phosphodiesterase 7 (Homo sapiens, UniProt Q13946+Q9NP56); assay: Inhibition of human Phosphodiesterase 7 of HUT-78 cells at 10 uM; assay type: cell-based
Phosphodiesterase 7 [3] = biological target: T2, Phosphodiesterase 7; assay: Inhibition of human Phosphodiesterase 7 of HUT-78 cells; assay type: cell-based
[4] = biological target: T3, Phosphodiesterase 3 (Homo sapiens) (UniProt Q14432+Q13370); assay: Inhibition of guinea pig Phosphodiesterase 3 (PDE3) at 10 uM; assay type: protein assay; details: Cavia porcellus, target entry is the homologue from another species
[5] = biological target: T1, Phosphodiesterase 4 (Homo sapiens); assay: Inhibition of guinea pig Phosphodiesterase 4 at 10 uM (inactive); assay type: protein assay; details: Cavia porcellus, target entry is the homologue from another species
Phosphodiesterase 7 [6] = biological target: T2, Phosphodiesterase 7; assay: Inhibition of human Phosphodiesterase 7 of HUT-78 cells at 10 uM (inactive); assay type: cell-based
[7] = biological target: T3, Phosphodiesterase 3 (Homo sapiens); assay: Inhibition of guinea pig Phosphodiesterase 3 at 10 uM; assay type: protein assay; details: Cavia porcellus, target entry is the homologue from another species

T2 sequence (Q13946 whole entry, looked up): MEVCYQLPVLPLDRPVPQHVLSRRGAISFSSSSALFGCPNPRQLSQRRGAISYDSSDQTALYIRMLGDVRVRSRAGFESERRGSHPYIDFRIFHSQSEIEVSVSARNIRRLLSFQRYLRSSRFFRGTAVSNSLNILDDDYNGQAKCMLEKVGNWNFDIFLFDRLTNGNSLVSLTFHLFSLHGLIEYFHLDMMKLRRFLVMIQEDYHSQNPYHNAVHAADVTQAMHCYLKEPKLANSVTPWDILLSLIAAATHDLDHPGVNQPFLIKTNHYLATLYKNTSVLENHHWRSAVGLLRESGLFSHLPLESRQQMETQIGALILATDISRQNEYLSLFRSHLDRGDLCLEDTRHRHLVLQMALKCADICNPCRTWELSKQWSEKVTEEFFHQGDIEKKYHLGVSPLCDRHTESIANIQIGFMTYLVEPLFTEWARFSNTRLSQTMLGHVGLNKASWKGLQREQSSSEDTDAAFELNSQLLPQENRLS
T2 sequence (Q9NP56 whole entry, looked up): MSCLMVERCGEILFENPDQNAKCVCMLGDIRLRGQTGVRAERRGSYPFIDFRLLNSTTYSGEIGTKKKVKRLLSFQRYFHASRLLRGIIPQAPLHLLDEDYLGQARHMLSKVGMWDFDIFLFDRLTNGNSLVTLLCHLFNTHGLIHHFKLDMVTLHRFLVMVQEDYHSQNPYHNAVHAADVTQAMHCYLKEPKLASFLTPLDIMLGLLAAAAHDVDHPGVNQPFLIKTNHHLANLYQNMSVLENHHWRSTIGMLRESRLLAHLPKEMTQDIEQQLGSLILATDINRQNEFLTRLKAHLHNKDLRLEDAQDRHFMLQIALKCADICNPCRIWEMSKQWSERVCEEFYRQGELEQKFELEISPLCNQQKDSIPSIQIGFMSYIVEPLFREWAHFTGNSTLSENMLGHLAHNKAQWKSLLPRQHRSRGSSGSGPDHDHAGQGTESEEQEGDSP

Compound | inhibition [1] | inhibition (Phosphodiesterase 7 [2]) | IC50 (Phosphodiesterase 7 [3]) | other results
Nc1nc(O)c2ncn(C3CCCc4ccccc43)c2n1 (centres undefined) | 7% | 4% | – | –
Nc1nc(O)c2nc(Br)n(C3CCCCc4ccc(F)cc43)c2n1 (centres undefined) | 13% | 10% | – | –
Nc1nc(O)c2nc(Br)n(C3CCCc4ccccc43)c2n1 (centres undefined) | 15% | – | 4.88 µM | inhibition [4]: 30%
Oc1ncnc2c1ncn2C1CCCc2ccccc21 (centres undefined) | – | – | – | inhibition [5]: inactive; inhibition (Phosphodiesterase 7 [6]): inactive
Nc1nc(O)c2nc(Br)n(C3CCc4ccccc43)c2n1 (centres undefined) | 27% | 22% | – | –
Nc1nc(O)c2nc(Br)n(C3CCCc4cccc(Br)c43)c2n1 (centres undefined) | 10% | – | 1.31 µM | inhibition [7]: 14%
COc1ccc2c(c1)C(n1c(Br)nc3c(O)nc(N)nc31)CCC2 (centres undefined) | 20% | – | 4.22 µM | –
Nc1nc(O)c2nc(Br)n(C3CCCc4ccc([N+](=O)[O-])cc43)c2n1 (centres undefined) | 42% | – | 2.31 µM | inhibition [7]: 19%
